# Like-named read-outs stand apart in the source and are kept apart here. Marks after values point to notes of the source that are not given here.
# Test: Phase 1 PK Part 2: relative bioavailability, dose proportionality, food effect of milled API tablet
# Type: in vivo, human
# Description: This is a Phase 1, open-label, single dose, multicenter, 4-part study in healthy adult participants.
# Potential participants will be screened from Day −28 to Day −2 to determine participants' eligibility for study participation. For Part 1, qualified participants will be admitted on Day −1 of each treatment period and will remain in-house for the total duration of the treatment (Day −1 until Day 5, with single-dose treatment on Day 1 and 96 hours of PK), whereas for Part 2, PK sampling will be done up to 120 hours (Day 6). Each dosed participant will have a safety follow-up on Day 10 to Day 14 after last dose of the study intervention.
# The Part 2 of the study involves determination of relative bioavailability for tablet (Formulation Concept 2, i.e., milled (microfine) aticaprant formulation; see Table 10) and capsule formulations (see Example 6, study design, for description of capsule formulation) and dose proportionality and food effect for tablet formulation (Formulation Concept 2) in healthy adult participants (FIG. 26). Part 2 will consist of Subpart 2A and Subpart 2B consisting of a total of 4 periods. […] Participants will be assigned to 1 of 6 treatment sequences (Table 55) and will be administered the 3 treatments in a 3-way crossover. The same 24 participants who complete Subpart 2A will be enrolled in Subpart 2B. Subpart 2B consists of a fourth period to evaluate the food effect of a single dose of 10 mg aticaprant administered as 1×10 mg oral tablet (Formulation Concept 2) under fed conditions (Treatment H; Tables 54 and 56). A preliminary PK analysis will be conducted at the end of the food effect part (Subpart 2B) for all the periods from Part 2 and will include the food effect data.
# For each individual participant, there will be a washout period of at least 7 days for Part 1 and at least 8 days for Part 2 between subsequent intakes of the study intervention. Day 1 of a treatment period (day of study intervention intake) is the first day of the washout period (also in between the study parts, if applicable).
# Participants will be fasting in Part 1A and Part 2A. Participants will have been fed in Parts 1B and 2B. For a fasted condition, participants will fast (nothing to cat or drink except noncarbonated water) overnight for at least 10 hours before and until 4 hours after study intervention administration during each fasted treatment period. Approximately, 4 hours post-dose and after the 4-hour PK sampling, a standard lunch will be served at the study-site. Intake of water is allowed until 2 hours before the intake of the study intervention. Thereafter, water intake is only allowed for study intervention intake and for breakfast, if applicable. Drinking of water is allowed ad libitum from approximately 2 hours after dosing. For a fed condition, participants will consume, after an overnight fast (at least 10 hours), a standardized high-fat breakfast within a 20-minute period. […] Study intervention will be administered approximately 30 minutes after the start of the breakfast.
# In Parts 1 and 2, plasma concentrations will be determined for aticaprant. Blood samples for determination of plasma concentrations of aticaprant will be collected predose and at the postdose time points starting on Day 1 as indicated in the Tables 57-58.
# The following plasma PK parameters of aticaprant will be determined. A noncompartmental model with extravascular input will be used for the pharmacokinetic analysis.
# Based on the individual concentration-time data, using the actual sampling times, the following PK parameters will be derived for aticaprant: […]
# [1] = Dose proportionality: Treatment G (5 mg milled API tablet normalized to 10 mg, Test)/Treatment F (10 mg, Reference), fasting
# [2] = Food effect: Treatment H (high-fat diet, Test)/Treatment F (fasted, Reference), 10 mg milled API tablet
# [3] = Relative BA: Treatment F (10 mg milled API tablet, Test)/Treatment E (2 × 5 mg capsule, Reference), fasting
# [4] = Treatment E: 2 × 5 mg oral capsule, fasting, mean
# [5] = Treatment F: 1 × 10 mg Formulation Concept 2 (milled API tablet), fasting, mean (SD)
# [6] = Treatment G (1 × 5 mg Formulation Concept 2, fasting), dose normalized to 10 mg, mean (SD)
# [7] = Treatment G: 1 × 5 mg Formulation Concept 2 (milled API tablet), fasting, mean
# [8] = Treatment H: 1 × 10 mg Formulation Concept 2 (milled API tablet), after high-fat breakfast, mean
structure (smiles),measurement,setting,value
"Cc1cc(C)cc(C2CCCN2Cc2ccc(Oc3ccc(C(N)=O)cc3F)cc2)c1 (stereo not shown) [aticaprant, 3-fluoro-4-4-2-(3,5-dimethylphenyl)pyrrolidin-1-yl-methylphenoxybenzamide]",Geometric Mean Cmax,"Dose proportionality, completers, Treatment G (Test): 1 × 5 mg Formulation Concept 2, fasting, Dose Normalized to 10 mg",0.0325 µg/mL
same,"Ratio of Geometric Means, AUClast",[1],104.15%
same,"Ratio of Geometric Means, AUC∞",[1],106.40%
same,"Ratio of Geometric Means, Cmax",[1],105.13%
same,"Ratio of Geometric Means, AUClast",[2],134.90%
same,"Ratio of Geometric Means, AUC∞",[2],135.55%
same,"Ratio of Geometric Means, Cmax",[2],107.30%
same,"Ratio of Geometric Means, AUClast",[3],94.31%
same,"Ratio of Geometric Means, AUC∞",[3],93.66%
same,"Ratio of Geometric Means, Cmax",[3],102.30%
same,"% AUC∞, ex",[4],5.02%
same,CL/F,[4],34.8 L/h
same,λz,[4],0.024 h⁻¹
same,"% AUC∞, ex",[5],5.50 (3.17) %
same,CL/F,[5],35.8 (12.1) L/h
same,Cmax,[5],32.4 (7.39) ng/mL
same,λz,[5],0.024 (0.007) 1/h
same,"AUClast, G Dose Normalized",[6],314 (160) h * ng/mL
same,"AUC∞, G Dose Normalized",[6],308 (74.1)^a h * ng/mL
same,"Cmax, G Dose Normalized",[6],34.7 (11.6) ng/mL
same,"% AUC∞, ex",[7],6.93%
same,CL/F,[7],34.7 L/h
same,λz,[7],0.030 h⁻¹
same,"% AUC∞, ex",[8],4.92%
same,CL/F,[8],27.0 L/h
same,Cmax,[8],34.0 ng/mL
same,λz,[8],0.025 h⁻¹
same,AUC(0-t),"human, plasma, oral, 5 mg, Dose proportionality, completers, Treatment G (Test): 1 × 5 mg Formulation Concept 2, fasting, Dose Normalized to 10 mg, read-out: Geometric Mean AUClast",0.285 µg·h/mL
same,AUC(0-inf),"human, plasma, oral, 5 mg, Dose proportionality, completers, Treatment G (Test): 1 × 5 mg Formulation Concept 2, fasting, Dose Normalized to 10 mg, read-out: Geometric Mean AUC∞",0.296 µg·h/mL
same,half-life,"human, plasma, oral, 5 mg, Treatment G: 1 × 5 mg Formulation Concept 2 (milled API tablet), fasting, mean",26.6 h
same,AUC(0-t),"human, plasma, oral, 5 mg, Treatment G: 1 × 5 mg Formulation Concept 2 (milled API tablet), fasting, mean, read-out: AUClast",0.157 µg·h/mL
same,AUC(0-inf),"human, plasma, oral, 5 mg, Treatment G: 1 × 5 mg Formulation Concept 2 (milled API tablet), fasting, mean, read-out: AUC∞",0.154 µg·h/mL
same,Cmax,"human, plasma, oral, 5 mg, Treatment G: 1 × 5 mg Formulation Concept 2 (milled API tablet), fasting, mean, read-out: Cmax",17.4 ng/mL
same,Tmax,"human, plasma, oral, 5 mg, Treatment G: 1 × 5 mg Formulation Concept 2 (milled API tablet), fasting, median",1 h
same,AUC(0-t),"human, plasma, oral, 10 mg, Dose proportionality, completers, Treatment F (Reference): 1 × 10 mg Formulation Concept 2, fasting, read-out: Geometric Mean AUClast",0.274 µg·h/mL
same,AUC(0-inf),"human, plasma, oral, 10 mg, Dose proportionality, completers, Treatment F (Reference): 1 × 10 mg Formulation Concept 2, fasting, read-out: Geometric Mean AUC∞",0.279 µg·h/mL
same,Cmax,"human, plasma, oral, 10 mg, Dose proportionality, completers, Treatment F (Reference): 1 × 10 mg Formulation Concept 2, fasting, read-out: Geometric Mean Cmax",30.9 ng/mL
same,AUC(0-t),"human, plasma, oral, 10 mg, Food effect, completers, Treatment F (Reference): 1 × 10 mg milled API tablet, fasted, read-out: Geometric Mean AUClast",0.279 µg·h/mL
same,AUC(0-inf),"human, plasma, oral, 10 mg, Food effect, completers, Treatment F (Reference): 1 × 10 mg milled API tablet, fasted, read-out: Geometric Mean AUC∞",0.28 µg·h/mL
same,Cmax,"human, plasma, oral, 10 mg, Food effect, completers, Treatment F (Reference): 1 × 10 mg milled API tablet, fasted, read-out: Geometric Mean Cmax",31.3 ng/mL
same,AUC(0-t),"human, plasma, oral, 10 mg, Food effect, completers, Treatment H (Test): 1 × 10 mg milled API tablet, high-fat diet, read-out: Geometric Mean AUClast",0.377 µg·h/mL
same,AUC(0-inf),"human, plasma, oral, 10 mg, Food effect, completers, Treatment H (Test): 1 × 10 mg milled API tablet, high-fat diet, read-out: Geometric Mean AUC∞",0.379 µg·h/mL
same,AUC(0-t),"human, plasma, oral, 10 mg, Relative BA, completers, Treatment F (Test): 1 × 10 mg Formulation Concept 2 (milled API tablet), fasting, read-out: Geometric Mean AUClast",0.274 µg·h/mL
same,AUC(0-inf),"human, plasma, oral, 10 mg, Relative BA, completers, Treatment F (Test): 1 × 10 mg Formulation Concept 2 (milled API tablet), fasting, read-out: Geometric Mean AUC∞",0.279 µg·h/mL
same,Cmax,"human, plasma, oral, 10 mg, Relative BA, completers, Treatment F (Test): 1 × 10 mg Formulation Concept 2 (milled API tablet), fasting, read-out: Geometric Mean Cmax",30.9 ng/mL
same,half-life,"human, plasma, oral, 10 mg, Treatment F: 1 × 10 mg Formulation Concept 2 (milled API tablet), fasting, mean (SD)",31 h
same,AUC(0-t),"human, plasma, oral, 10 mg, Treatment F: 1 × 10 mg Formulation Concept 2 (milled API tablet), fasting, mean (SD), read-out: AUClast",0.297 µg·h/mL
same,AUC(0-inf),"human, plasma, oral, 10 mg, Treatment F: 1 × 10 mg Formulation Concept 2 (milled API tablet), fasting, mean (SD), read-out: AUC∞",0.318 µg·h/mL
same,Tmax,"human, plasma, oral, 10 mg, Treatment F: 1 × 10 mg Formulation Concept 2 (milled API tablet), fasting, median (range)",1.5 h
same,half-life,"human, plasma, oral, 10 mg, Treatment H: 1 × 10 mg Formulation Concept 2 (milled API tablet), after high-fat breakfast, mean",30.8 h
same,AUC(0-t),"human, plasma, oral, 10 mg, Treatment H: 1 × 10 mg Formulation Concept 2 (milled API tablet), after high-fat breakfast, mean, read-out: AUClast",0.388 µg·h/mL
same,AUC(0-inf),"human, plasma, oral, 10 mg, Treatment H: 1 × 10 mg Formulation Concept 2 (milled API tablet), after high-fat breakfast, mean, read-out: AUC∞",0.388 µg·h/mL
same,Tmax,"human, plasma, oral, 10 mg, Treatment H: 1 × 10 mg Formulation Concept 2 (milled API tablet), after high-fat breakfast, median",2 h
same,AUC(0-t),"human, plasma, po, 10 mg, Relative BA, completers, Treatment E (Reference): 2 × 5 mg oral capsule, fasting, read-out: Geometric Mean AUClast",0.291 µg·h/mL
same,AUC(0-inf),"human, plasma, po, 10 mg, Relative BA, completers, Treatment E (Reference): 2 × 5 mg oral capsule, fasting, read-out: Geometric Mean AUC∞",0.297 µg·h/mL
same,Cmax,"human, plasma, po, 10 mg, Relative BA, completers, Treatment E (Reference): 2 × 5 mg oral capsule, fasting, read-out: Geometric Mean Cmax",30.2 ng/mL
same,half-life,"human, plasma, po, 10 mg, Treatment E: 2 × 5 mg oral capsule, fasting, mean",30.5 h
same,AUC(0-t),"human, plasma, po, 10 mg, Treatment E: 2 × 5 mg oral capsule, fasting, mean, read-out: AUClast",0.308 µg·h/mL
same,AUC(0-inf),"human, plasma, po, 10 mg, Treatment E: 2 × 5 mg oral capsule, fasting, mean, read-out: AUC∞",0.307 µg·h/mL
same,Cmax,"human, plasma, po, 10 mg, Treatment E: 2 × 5 mg oral capsule, fasting, mean, read-out: Cmax",31.7 ng/mL
same,Tmax,"human, plasma, po, 10 mg, Treatment E: 2 × 5 mg oral capsule, fasting, median",2 h

# Source: patent US12201610B2, “Compositions comprising aticaprant” (Janssen Pharmaceuticals, Inc., priority 2022, dated 2025)
